Assay results as given in PubChem BioAssay (NCI).
“And” between values parts separate entries of the source, which are not always exact repeats. Equal values may be shown once.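 Tested at 5 concentrations; 48 h exposure; 96-well plates; endpoints linearly interpolated, else capped at highest concentration. The concentration for 50% growth inhibition is given as GI50. TGI denotes the concentration required for complete inhibition of growth.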

Assays:
Assay in all cases: NCI anticancer screen, dose series, 48 h
COLO 205 colon = tested on: COLO 205 colon
HT29 colon = tested on: HT29 colon
UO-31 renal = tested on: UO-31 renal
IGROV1 ovarian = tested on: IGROV1 ovarian
PC-3 prostate = tested on: PC-3 prostate
NCI/ADR-RES ovarian = tested on: NCI/ADR-RES ovarian
SK-MEL-2 melanoma = tested on: SK-MEL-2 melanoma
ACHN renal = tested on: ACHN renal
SN12C renal = tested on: SN12C renal
SW-620 colon = tested on: SW-620 colon

SMILES	TGI (COLO 205 colon)	TGI (HT29 colon)	TGI (UO-31 renal)	TGI (IGROV1 ovarian)	TGI (PC-3 prostate) [µM]	TGI (NCI/ADR-RES ovarian)	TGI (SK-MEL-2 melanoma)	TGI (ACHN renal)	TGI (SN12C renal)	TGI (SW-620 colon)	GI50 (SK-MEL-2 melanoma)	GI50 (COLO 205 colon)	GI50 (HT29 colon)	GI50 (UO-31 renal) [nM]	GI50 (IGROV1 ovarian) [nM]	GI50 (PC-3 prostate)	GI50 (NCI/ADR-RES ovarian) [µM]	GI50 (ACHN renal) [nM]	GI50 (SN12C renal) [nM]	GI50 (SW-620 colon)
O=C(O)CSc1ncccc1[N+](=O)[O-]	> 100 µM	> 100 µM	> 100 µM	> 100 µM	> 100	> 100 µM	> 100 µM	> 100 µM	> 100 µM	> 100 µM										
CCN(CC)CCNc1n[n+]([O-])c2ccccc2[n+]1[O-]	19.9 µM and 26 µM	39.2 µM and 42.7 µM	> 79.4 µM and 57.1 µM	10.3 µM and 17 µM	> 100	85.6 µM and > 100 µM	13.2 µM and 19.1 µM	18.4 µM and 21.1 µM	19.1 µM and 18.9 µM	82 µM and 55.9 µM	2340 nM and 5130 nM									
Cn1c(=O)c2c(ncn2CN2CCN(Cn3cnc4c3c(=O)n(C)c(=O)n4C)CC2)n(C)c1=O	> 100 µM	> 100 µM	> 100 µM	> 100 µM	> 100	> 100 µM	> 100 µM	> 100 µM	> 100 µM	> 100 µM										
Cn1cc(CNCC2CCN(c3ncc(C(=O)NO)cn3)CC2)c2ccccc21	0.107 µM	0.587 µM	0.447 µM	0.352 µM	18	5.59 µM	0.334 µM	0.0962 µM	15.7 µM	2.11 µM	< 15.1 nM	< 10.4 nM	< 10 nM	24.7	24.5	12 nM	0.107	22.9	34.4	14.7 nM
CNC(=S)N/N=C/c1ccc([N+](=O)[O-])s1	8.55 µM	> 10 µM	> 10 µM	> 10 µM	> 10	> 10 µM	> 10 µM	> 10 µM	> 10 µM	> 10 µM										
COc1ccc(-c2cn[nH]c2-c2cc(OC)c3c(c2)OCCO3)cc1	0.585 µM	11.2 µM	42 µM	39.6 µM	39	41.5 µM	16.1 µM	> 100 µM	73.7 µM	> 72.5 µM	68.5 nM	59.1 nM	42.1 nM	734	384	128 nM	0.0549	1260	1280	50.6 nM
COc1cc2nc(-c3ccc(C(F)(F)F)cc3)cc(OCCCN3CCCCC3)c2cc1OC	1.94 µM	2.52 µM	12.5 µM	16 µM	11.2	14.8 µM	8.89 µM	14.4 µM	15.8 µM	13.3 µM	2640 nM	406 nM	415 nM	2000	651	1340 nM	0.522	1200	668	2910 nM
Fc1cccc(Cl)c1/C=N\N=C1c2ccccc2-c2ccccc21	> 100 µM	> 100 µM	> 100 µM	> 100 µM	> 100	> 100 µM	> 100 µM	> 100 µM	> 100 µM	> 100 µM										
CCc1c(C)c(C#N)c(=S)n(C2OC(CO)C(O)C(O)C2O)c1C (configuration not stated)	> 100 µM	> 100 µM	> 100 µM	> 100 µM	> 100	> 100 µM	> 100 µM	> 100 µM	> 100 µM	> 100 µM										
Cc1c2ccc(N(C)c3ccnc(Nc4cccc(S(N)(=O)=O)c4)n3)cc2nn1C	> 25 µM	> 25 µM	> 23.1 µM	> 25 µM	> 25	> 25 µM	16.7 µM	> 25 µM	> 25 µM	> 25 µM	7060 nM	12500 nM	8030 nM	5960	10100	9230 nM	> 19.7	8120	8750	11700 nM
Cc1ccc(NC(=O)Cn2c(Br)nc3c2c(=O)n(C)c(=O)n3C)cc1	19.3 µM	51.5 µM	6 µM	17.4 µM	24.1	29.3 µM	27.4 µM	8.12 µM	10.8 µM	33.2 µM	13400 nM	5570 nM	13800 nM	2130	5000	11500 nM	9.75	2800	3160	13500 nM
CSC1=NS(=O)(=O)c2cc(C(=O)NN(C)C(=O)c3cc4c(cc3Cl)SC(SC)=NS4(=O)=O)c(Cl)cc2S1	> 10 µM	> 10 µM	> 10 µM	> 10 µM	> 10	> 10 µM	> 10 µM	> 10 µM	> 10 µM	> 10 µM										
CC[C@@]1(O)C(=O)OCc2c1cc1n(c2=O)Cc2cc3cc(N)ccc3nc2-1	2.86 µM and 1.26 µM		0.169 µM and 0.0358 µM	3.06 µM and 2.21 µM		0.169 µM and 0.116 µM	1.58 µM	0.108 µM and 0.013 µM	0.243 µM and 0.123 µM	5.06 µM	528 nM and 311 nM	61.8 nM and 102 nM	17.6 nM and 22.5 nM	11.7	56	141 nM and 84.2 nM			14.2	11.3 nM and < 31 nM
Cc1cc(-c2nnc3n2CCCCC3)c(C)n1-c1ccc(Cl)c(Cl)c1	25.1 µM	38.1 µM	36.7 µM	42.7 µM	57.1	47.8 µM	31 µM	> 100 µM	40.1 µM	50.9 µM	14900 nM	10600 nM	16000 nM	12600	17900	11000 nM	11.9	12000	14700	17500 nM
CCC(c1cccc(O)c1)C(CC)c1cccc(O)c1 (configuration not stated)	5.41 µM	11.2 µM	17.8 µM	25.3 µM	12.5	14.1 µM	17.2 µM	18.9 µM	19.4 µM	16.4 µM	3960 nM	2050 nM	1860 nM	4230	10800	2280 nM	3.53	5640	5460	4440 nM
